# According to patent US10059721B2, “Substituted thieno[3,2-b]pyrazines for inhibiting cancer cell proliferation and inducing cancer cell apoptosis” (DONGGUK UNIVERSITY INDUSTRY-ACADEMIC COOPERATION FOUNDATION, priority 2014, dated 2018):
# Experiments:
# Format in all cases: cell-based
# [1] = test system: MDA-MB-231 (breast cancer) cell line; experiment: Cell growth inhibition experiment (SRB), MDA-MB-231; settings: Homo sapiens, incubated for 96 hours, read-out: IC50 (μM) of cancer cell lines MDA-MB-231
# Protocol: (§1) The cell lines below were used in order to confirm the efficacy of the compounds synthesized in Examples 1 to 27. Human PANC-1 (pancreatic cancer) and MDA-MB-231 (breast cancer) cell lines were obtained from American Type Culture Collection (ATCC; Manassas, Va.); and HN31 (head and neck cancer) and UMRC2 (kidney cancer) cell lines were secured from the United States National Institutes of Health (Bethesda, Md.). The MDA-MB-231, UMRC2, HN31, and PANC-1 cell lines were cultured in Dulbecco modified Eagle medium (DMEM) containing FBS (10%), HEPES (10 mM), penicillin (100 U/mL), and streptomycin (100 μg/mL). All cell lines were cultured in an incubator (37° C., 5% CO2).
# (§2) The 4-(aryl)-N-(2-alkoxythieno[3,2-b]pyrazin-3-yl)-piperazin-1-carboxamide derivative compounds synthesized according to Examples 1 to 27 of the present invention were treated with various human tissue-derived cancer cell lines cultured according to Experimental Example 1, and thus the inhibitory effect of the growth of human cancer cells was confirmed. The cell growth inhibition experiment was conducted using sulforhodamine B (SRB) technique (Skehan et al., J. National Cancer Institute, 1990, 82: 1107-1112). Specifically, each cell line was seeded in a 96-well plate at a density of 2 to 3×10^3 cells/well, cultured overnight, and then treated with the 4-(aryl)-N-(2-alkoxythieno[3,2-b]pyrazin-3-yl)-piperazin-1-carboxamide derivative compounds of the present invention. The experiment was repeated 3 times for each compound. Cells treated with each compound were additionally incubated for 96 hours, fixed with 10% trichloroacetic acid (TCA), and then left at 4° C. for 1 hour. The resultant was washed 3 times with distilled water. Thereafter, each cell was treated with 0.4% sulforhodamine B dissolved in 1% acetic acid, stained for 30 minutes, and then washed 4 times with 1% acetic acid. The resultant was dried in the air. After shaking the resultant in Tris solution (10 mM) for 5 minutes, the absorbance was measured at 530 nm using a Benchmark Plus Microplate reader (Bio-Rad Laboratories, Hercules, Calif.).
# (§3) In order to convert the OD530 value to the number of viable cells per each well, the measured OD530 value was compared to the standard OD530-vs.-cell number curve of each cell line. The percent survival was calculated using the following formula: % survival=Nlive cells(test)/Nlive cells(control)×100
# (§4) IC50 values were calculated by nonlinear regression analysis.
# SK-OV-3 = experiment: Cell growth inhibition experiment (SRB), SK-OV-3; settings: Homo sapiens, incubated for 96 hours, read-out: IC50 (μM) of cancer cell lines SK-OV-3
# Protocol: as §2, §3, §4
# [2] = test system: HN31 (head and neck cancer) cell line; experiment: Cell growth inhibition experiment (SRB), HN31; settings: Homo sapiens, incubated for 96 hours, read-out: IC50 (μM) of cancer cell lines HN31
# Protocol: as §1, §2, §3, §4
# HT29 = experiment: Cell growth inhibition experiment (SRB), HT29; settings: Homo sapiens, HT-29, incubated for 96 hours, read-out: IC50 (μM) of cancer cell lines HT29
# Protocol: as §2, §3, §4
# HUVEC = experiment: Cell growth inhibition experiment (SRB), HUVEC; settings: Homo sapiens, incubated for 96 hours, read-out: IC50 (μM) of cancer cell lines HUVEC
# Protocol: as §2, §3, §4
# HEK293 = experiment: Cell growth inhibition experiment (SRB), HEK293; settings: Homo sapiens, incubated for 96 hours, read-out: IC50 (μM) of cancer cell lines HEK293
# Protocol: as §2, §3, §4
# [3] = test system: PANC-1 (pancreatic cancer) cell line; experiment: Cell growth inhibition experiment (SRB), PANC-1; settings: Homo sapiens, incubated for 96 hours, read-out: IC50 (μM) of cancer cell lines PANC-1
# Protocol: as §1, §2, §3, §4
# A549 = experiment: Cell growth inhibition experiment (SRB), A549; settings: Homo sapiens, incubated for 96 hours, read-out: IC50 (μM) of cancer cell lines A549
# Protocol: as §2, §3, §4
# [4] = test system: UMRC2 (kidney cancer) cell line; experiment: Cell growth inhibition experiment (SRB), UMRC2; settings: Homo sapiens, incubated for 96 hours, read-out: IC50 (μM) of cancer cell lines UMRC2
# Protocol: as §1, §2, §3, §4
Compound,IC50 [1],IC50 (SK-OV-3),IC50 [2],IC50 (HT29),IC50 [3],IC50 (A549),IC50 [4],IC50 (HUVEC),IC50 (HEK293)
"COc1nc2cc(Cl)sc2nc1NC(=O)N1CCN(c2cc(C)cc(C)c2)CC1 [Example 2, N-(6-chloro-2-methoxythieno[3,2-b]pyrazin-3-yl)-4-(3,5-dimethylphenyl)piperazin-1-carboxamide]",0.06 µM,0.82 µM,0.99 µM,0.62 µM,0.95 µM,< 2.5 µM,0.08 µM,0.91 µM,0.93 µM
"COc1nc2cc(Cl)sc2nc1NC(=O)N1CCN(c2cc(F)cc(F)c2)CC1 [Example 3, N-(6-chloro-2-methoxythieno[3,2-b]pyrazin-3-yl)-4-(3,5-difluorophenyl)piperazin-1-carboxamide]",0.04 µM,0.85 µM,0.71 µM,0.53 µM,0.56 µM,2.11 µM,0.06 µM,0.54 µM,0.87 µM
"CCOc1nc2cc(Cl)sc2nc1NC(=O)N1CCN(c2cc(OC)cc(OC)c2)CC1 [Example 4, N-(6-chloro-2-ethoxythieno[3,2-b]pyrazin-3-yl)-4-(3,5-dimethoxyphenyl)piperazin-1-carboxamide]",0.63 µM,< 2.5 µM,1.54 µM,< 2.5 µM,1.28 µM,< 2.5 µM,0.54 µM,2.25 µM,< 2.5 µM
"COc1cc(OC)cc(N2CCN(C(=O)Nc3nc4sc(Cl)cc4nc3OC(C)C)CC2)c1 [Example 7, N-(6-chloro-2-isopropoxythieno[3,2-b]pyrazin-3-yl)-4-(3,5-dimethoxyphenyl)piperazin-1-carboxamide]",< 2.5 µM,< 2.5 µM,< 2.5 µM,< 2.5 µM,< 2.5 µM,< 2.5 µM,< 2.5 µM,< 2.5 µM,< 2.5 µM
"Cc1cc(C)cc(N2CCN(C(=O)Nc3nc4sc(Cl)cc4nc3OC(C)C)CC2)c1 [Example 8, N-(6-chloro-2-isopropoxythieno[3,2-b]pyrazin-3-yl)-4-(3,5-dimethylphenyl)piperazin-1-carboxamide]",< 2.5 µM,< 2.5 µM,< 2.5 µM,< 2.5 µM,< 2.5 µM,< 2.5 µM,< 2.5 µM,< 2.5 µM,< 2.5 µM
"CC(C)Oc1nc2cc(Cl)sc2nc1NC(=O)N1CCN(c2cc(F)cc(F)c2)CC1 [Example 9, N-(6-chloro-2-isopropoxythieno[3,2-b]pyrazin-3-yl)-4-(3,5-difluorophenyl)piperazin-1-carboxamide]",< 2.5 µM,< 2.5 µM,< 2.5 µM,< 2.5 µM,< 2.5 µM,< 2.5 µM,< 2.5 µM,< 2.5 µM,< 2.5 µM
"COc1nc2ccsc2nc1NC(=O)N1CCN(c2cc(C)cc(C)c2)CC1 [Example 11, 4-(3,5-dimethylphenyl)-N-(2-methoxythieno[3,2-b]pyrazin-3-yl)piperazin-1-carboxamide]",0.07 µM,0.27 µM,0.41 µM,0.31 µM,0.24 µM,1.31 µM,0.07 µM,0.07 µM,0.65 µM
"COc1nc2ccsc2nc1NC(=O)N1CCN(c2cc(F)cc(F)c2)CC1 [Example 12, 4-(3,5-difluorophenyl)-N-(2-methoxythieno[3,2-b]pyrazin-3-yl)piperazin-1-carboxamide]",0.05 µM,0.29 µM,0.33 µM,0.3 µM,0.24 µM,1.28 µM,0.04 µM,0.07 µM,0.55 µM
"CCOc1nc2ccsc2nc1NC(=O)N1CCN(c2cc(OC)cc(OC)c2)CC1 [Example 13, 4-(3,5-dimethoxyphenyl)-N-(2-ethoxythieno[3,2-b]pyrazin-3-yl)piperazin-1-carboxamide]",0.16 µM,< 2.5 µM,0.72 µM,< 2.5 µM,0.65 µM,< 2.5 µM,0.26 µM,< 2.5 µM,< 2.5 µM
"CCOc1nc2ccsc2nc1NC(=O)N1CCN(c2cc(F)cc(F)c2)CC1 [Example 15, 4-(3,5-difluorophenyl)-N-(2-ethoxythieno[3,2-b]pyrazin-3-yl)piperazin-1-carboxamide]",0.25 µM,< 2.5 µM,0.78 µM,< 2.5 µM,1.12 µM,< 2.5 µM,0.25 µM,< 2.5 µM,< 2.5 µM
"COc1cc(OC)cc(N2CCN(C(=O)Nc3nc4sccc4nc3OC(C)C)CC2)c1 [Example 16, 4-(3,5-dimethoxyphenyl)-N-(2-isopropoxythieno[3,2-b]pyrazin-3-yl)piperazin-1-carboxamide]",2.12 µM,< 2.5 µM,< 2.5 µM,< 2.5 µM,< 2.5 µM,< 2.5 µM,< 2.5 µM,< 2.5 µM,< 2.5 µM

# Further compounds by falling IC50 [1], results first:
IC50 [1],IC50 (SK-OV-3),IC50 [2],IC50 (HT29),IC50 [3],IC50 (A549),IC50 [4],Compound,IC50 (HUVEC),IC50 (HEK293)
1.22 µM,< 2.5 µM,2.35 µM,< 2.5 µM,2.32 µM,< 2.5 µM,1.72 µM,"CCOc1nc2cc(Cl)sc2nc1NC(=O)N1CCN(c2cc(C)cc(C)c2)CC1 [Example 5, N-(6-chloro-2-ethoxythieno[3,2-b]pyrazin-3-yl)-4-(3,5-dimethylphenyl)piperazin-1-carboxamide]",< 2.5 µM,< 2.5 µM
1.13 µM,< 2.5 µM,2.1 µM,< 2.5 µM,1.98 µM,< 2.5 µM,1.21 µM,"CCOc1nc2cc(Cl)sc2nc1NC(=O)N1CCN(c2cc(F)cc(F)c2)CC1 [Example 6, N-(6-chloro-2-ethoxythieno[3,2-b]pyrazin-3-yl)-4-(3,5-difluorophenyl)piperazin-1-carboxamide]",< 2.5 µM,< 2.5 µM
0.34 µM,< 2.5 µM,0.65 µM,< 2.5 µM,< 2.5 µM,< 2.5 µM,0.57 µM,"CCOc1nc2ccsc2nc1NC(=O)N1CCN(c2cc(C)cc(C)c2)CC1 [Example 14, 4-(3,5-dimethylphenyl)-N-(2-ethoxythieno[3,2-b]pyrazin-3-yl)piperazin-1-carboxamide]",< 2.5 µM,< 2.5 µM
0.02 µM,0.27 µM,0.27 µM,0.31 µM,0.53 µM,2.13 µM,0.03 µM,"COc1cc(OC)cc(N2CCN(C(=O)Nc3nc4sc(Cl)cc4nc3OC)CC2)c1 [Example 1, N-(6-chloro-2-methoxythieno[3,2-b]pyrazin-3-yl)-4-(3,5-dimethoxyphenyl)piperazin-1-carboxamide]",0.12 µM,0.63 µM
0.02 µM,0.23 µM,0.18 µM,0.27 µM,0.38 µM,1.14 µM,0.03 µM,"COc1cc(OC)cc(N2CCN(C(=O)Nc3nc4sccc4nc3OC)CC2)c1 [Example 10, 4-(3,5-dimethoxyphenyl)-N-(2-methoxythieno[3,2-b]pyrazin-3-yl)piperazin-1-carboxamide]",0.06 µM,0.56 µM
